Test results taken from paper PMC10017155 (Aging and Disease, 2023).
“Also recorded” adds a separate entry of the source. Peptide text beside a SMILES is read from it.

Assays:
[1] = test system: isoD7-Aβ16; test: NMR titration, isoD7-Aβ16 with HAEE and Zn2+; type: binding; conditions: NMR
Protocol: Peptides Aβ16, H6R-Aβ16 and isoD7-Aβ16 at the concentration of 0.2 - 8mM were dissolved in 10-20 mM bis-Tris-d19 (2,2-Bis(hydroxymethyl)-2,2′,2"-nitrilotrie-thanol-d19 with 98% ^2D enrichment) buffer solution (pH 6.8). Sodium salt of 3-(trimethylsilyl) propionic-2,2,3,3-d4 acid (DSS) at a concentration of 10-20 μM was added as the standard. NMR spectra were measured at 278 K in 90% H2O/10% D2O with Bruker AVANCE 600 MHz spectrometer equipped with triple resonance (^1H, ^13C and ^15N) pulsed field z gradient probe. 1D NMR spectra were processed and analyzed using the Mnova software (Mestrelab Research, Spain). In order to monitor peptide-peptide interactions NMR titration experiments were carried out. […] 1D spectra were recorded for each titration point.

[2] = test system: C. elegans CL2120; test: Amyloid load by X-34 staining in C. elegans CL2120; type: in vivo
Protocol: C. elegans CL2120 (dvIs14 [(pCL12) unc-54::beta 1-42 +(pCL26) mtl-2::GFP]) and C. elegans CL2122 (dvIs15 [(pPD30.38) unc-54(vector) + (pCL26) mtl-2::GFP]) strains were obtained from the Caenorhabditis Genetics Center. The worms were handled according to standard methods without FUDR [18]. E. coli OP50 bacteria were grown overnight in Luria-Bertani broth and 50µl were spread atop NGM or NGMZn plates. NGMZn has 20μM ZnSO4. Seeded plates were incubated at 30°C for ~16 hours and then for 1-2 hours at 15 or 25°C before worms were transferred. Lifespan and paralysis experiments (see below) were performed at 25°C for enhanced expression of Aβ. This temperature is standard when studying the effects of Aβ on C. elegans CL2120 strain [19].
Nematodes were purified from unwanted microflora by the alkaline hypochlorite method, grown to the L4 stage at 15°C on NGM plates with bacterial lawn. […] Further, all contents were transferred to Petri plates with NGM or NGMZn with OP50 and placed in a temperature-controlled incubator at 25°C. Next day, worms were transferred onto similar media with a bacterial substrate and the lifespan was determined at 25°C (Supplementary Tables 3, 4).
Post-hoc analysis was performed with the Tukey test.
Figure 2.

[3] = target: T1, immobilized isoD7-Aβ42 (Homo sapiens, UniProt P05067); test: SPR analysis of HAEE binding to immobilized isoD7-Aβ42
T1 construct: isoD7-Aβ42 (DAEFRH[isoD][…]); purchased Biopeptide Co., LLC (San Diego, CA, USA); host or cells: chemical synthesis
Protocol: All SPR measurements were carried out at 25°C using an optical biosensor Biacore 8K (GE Healthcare, USA) with CM4 optical chip. Covalent immobilization of the peptide ligands on the surface of the optical chip was performed using the sulfhydryl group of the C-terminal tetragly-cylcysteine tag. Briefly, carboxyl groups on the chip surface were activated by serial injections of mixture of 0.4 M EDC/0.1 M NHS at a flow rate of 10 μL/min for 2 min and a solution of 80 mM PDEA in 100 mM borate buffer (pH 8.5) for 4 min. Solutions of 2 μM peptides in the immobilization buffer (10 mM acetate buffer, pH 4.5) were injected for 2 min at a flow rate of 10 μL/min (three repeats). Unreacted activated groups on the chip were blocked by further injection of a solution containing 50 mM cysteine, 1 M NaCl, 0.1 M sodium acetate (pH 4.3) for 4 min at a flow rate of 5 μL/min. Possible nonspecific analyte binding to the chip surface was evaluated using a free (control) channel of the biosensor exposed to the same treatments as the working channel except peptides. SPR signals were recorded in real time in resonance units (RU; 1 RU corresponds to […]) and were presented in the form of sensorgrams showing time-dependent signal changes. […] The obtained sensorgrams were analyzed with BIAevaluation v.4.1 software.

[4] = test system: transgenic mice; conditions: cited from earlier work
Excerpt: The development of AD comprises a cascade of pathogenic processes in brain tissue. Some of the major elements of this cascade are the aggregation of beta-amyloid (Aβ) with the formation of neurotoxic oligomers, hyperphosphorylation of tau, and neuroinflammation. […] In the sporadic form of AD, accounting for 95% of disease cases, the molecular triggers for the pathological cascade remain unknown. […] We hypothesized that the contribution of isoD7-Aβ to the development of AD is based on the formation of zinc-bound complexes that promote pathological aggregation of Aβ (Fig. 1A). […] Interaction of HAEE with beta-amyloid. (A) A model for the contribution of isoD7-Aβ to AD pathology, and the possible ways of preventing its deleterious effects. Aβ spontaneously converts into isoD7-Aβ, which is accumulated over age, likely due to reduced Aβ clearance. Isomerized Aβ promotes AD pathology, potentially via formation of Zn-bound complexes serving as the seeds for a generation of neurotoxic oligomers. Treatment with anti-isoAβ antibodies is a promising therapeutic strategy already showing effectiveness in AD model mice ^9.

[5] = HAEE 4 mM + isoD7-Aβ42 40 µM, NGMZn, X-34

T1 sequence (P05067 672-713): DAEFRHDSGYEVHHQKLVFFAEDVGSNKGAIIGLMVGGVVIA

CC(=O)N[C@@H](Cc1c[nH]cn1)C(=O)N[C@@H](C)C(=O)N[C@@H](CCC(=O)O)C(=O)N[C@@H](CCC(=O)O)C(N)=O [HAEE, Ac-HAEE-NH2] (Ac-HAEE-NH2)
Zinc-dependent dimerization of isoD7-Aβ16 ([1]; 278 K, pH 6.8, Zn2+): inhibits
Effect of Zn2+ on isoD7-Aβ16 NMR signal in the presence of HAEE ([1]; pH 6.8, 278 K, Zn2+ plus HAEE): did not diminish the isoD7-Aβ16 signal
Effect of HAEE on isoD7-Aβ42/Zn2+-induced amyloidosis [2, 5]: completely negated; also recorded: abrogates this pathological process; also recorded: fails to induce amyloidosis
Number of plaques and plaque area [2, 5]: reduced back to the untreated group values
Effect on endogenous amyloidosis in untreated transgenic C. elegans ([2]; HAEE alone): did not affect the endogenous amyloidosis
Interaction with immobilized isoD7-Aβ42 in the absence of Zn2+ ([3]; 10 mM HEPES, pH 6.8, no Zn2+, 25°C): no interaction
Kd ([3]; immobilized isoD7-Aβ42, 100 µM ZnCl2, pH 6.8, 25°C): 10.4 ± 0.4 µM
Amyloid accumulation in animal models of AD [4]: hamper amyloid accumulation
